For two compounds, IC50 results are on record in ChEMBL document CHEMBL1150034, “Synthesis of peptidyl acetals as inhibitors of prolyl endopeptidase” (Bioorg Med Chem Lett, 1995).

The assay addresses T1, Prolyl endopeptidase (Homo sapiens, UniProt P48147).
T1 sequence (P48147 whole entry): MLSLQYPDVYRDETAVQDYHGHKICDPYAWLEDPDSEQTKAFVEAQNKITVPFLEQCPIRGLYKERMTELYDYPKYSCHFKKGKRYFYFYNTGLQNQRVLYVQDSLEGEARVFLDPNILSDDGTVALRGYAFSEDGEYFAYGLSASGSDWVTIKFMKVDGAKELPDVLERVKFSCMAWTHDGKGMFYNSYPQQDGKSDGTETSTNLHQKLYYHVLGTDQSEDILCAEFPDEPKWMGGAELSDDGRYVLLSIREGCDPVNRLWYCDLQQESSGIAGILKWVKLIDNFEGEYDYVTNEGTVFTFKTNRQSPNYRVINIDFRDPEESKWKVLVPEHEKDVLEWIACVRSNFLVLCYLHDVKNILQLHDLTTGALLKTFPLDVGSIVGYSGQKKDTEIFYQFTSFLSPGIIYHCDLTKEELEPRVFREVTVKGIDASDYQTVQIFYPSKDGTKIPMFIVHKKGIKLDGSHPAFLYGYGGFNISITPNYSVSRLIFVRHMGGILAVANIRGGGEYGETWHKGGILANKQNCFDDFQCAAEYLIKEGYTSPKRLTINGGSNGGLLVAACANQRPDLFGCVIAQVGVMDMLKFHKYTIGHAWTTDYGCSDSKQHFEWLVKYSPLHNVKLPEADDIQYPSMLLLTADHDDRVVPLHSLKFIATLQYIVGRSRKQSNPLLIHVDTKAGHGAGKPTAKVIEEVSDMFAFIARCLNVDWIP
Description: Compound was evaluated for the inhibition of prolyl endopeptidase (PEP) purified from human peripheral blood mononuclear cells.

`COC(OC)C1CSCN1C(=O)C1CSCN1C(=O)OCc1ccccc1` (configuration not stated) had a 50% inhibitory concentration (IC50) of 2.6 µM. This lies in the single-digit micromolar range.

`COCC1COC(C2CCCN2C(=O)C2CCCN2C(=O)OCc2ccccc2)O1` (configuration not stated) displayed a half-maximal inhibitory concentration (IC50) of 6.5 µM.

For orientation: IC50 means the concentration that gives 50% inhibition.
